Molecular target: hydrilla PDS position 304 Arginine, His-tagged (Hydrilla verticillata, UniProt Q66PY0)
Assay: Cross-resistance testing, His-tagged column-purified PDS (Table 2A)
Assay type: biochemical
Settings: for R/S: Arginine at 304 (reference), Table 2A; for IC50: Arginine at 304, His-tagged, column-purified PDS, read-out: I50
Text: The alternative approach utilized His-tagging and column purification of the mutant PDS protins.
In order to express pds in bacteria, deletion clones were made for each of the three potential start codons with and without ATG. […] The forward primers used were ORF (5′ […] 3′), ORF-ATG (5′ […] 3′), 3_ORF (5′[…] 3′) and 3_ORF-ATG (5′ […] 3′). The resulting plasmids were named pORF, pORF-ATG (minus ATG codon), p3ORF and p3ORF-ATG. The pds-containing EcoRI-fragments of these plasmids were subcloned into the EcoRI site of pRSETb vector (Invitrogen) for Histidine tagging and bacterial expression. The resulting constructs were pHy4SET, pHy4SET-ATG (minus ATG), p3ORFSET and p3ORFSET-ATG.
Primers used to replace Arg by His were Hyd-His-For (5′[…] 3′) and Hyd-His-Rev (5′ […] 3′); to replace Arg by Thr we used primers Hyd-Thr-For (5′[…] 3′) and Hyd-Thr-Rev (5′[…] 3′); to replace Arg by Ser we used Hyd-Ser-For (5′[…] 3′) and Hyd-Ser-Rev (5′[…] 3′); and Arg was replaced by Cys using Hyd-Cys-For (5′[…] 3′) and Hyd-Cys-Rev (5′[…] 3′). Resulting plasmids were named: p3ORFHisSet-ATG, p3ORFThrSet-ATG, p3ORFSerSet-ATG and p3ORFCysSet-ATG.
All pRSET derived constructs were transformed into BL21(DE3)pLysS cells (Invitrogen), induced with IPTG for protein expression, and the His tag overproduced proteins analyzed by Western blot using Anti-HisG antibody (Invitrogen, cat. #R940-25).
BL21(DE3)pLysS cells were grown overnight in 500 ml Luria Broth (LB) supplemented with carbenicillin (100 mg/l) and cloramphenicol (60 mg/l) at 37° C., and induced with 0.3 mM isopropylthio-β-D-galactoside (IPTG) for 3 hrs. Cells were lysed using a French press (Spectronics Instrument) at 20,000 psi and overexpressed PDS was purified on a nickel activated Hitrap Chelating HP column according to the manufacturers instructions (Amersham Bioscience).
Generally, PDS protein fractions prepared as described above (Non-His-tagged and His-tagged) were mixed with a soluble fraction from phytoene-producing E. coli cells. […] This E. coli strain was separately cultured and lysed, and its soluble components collected (“the EB extract”) in a fashion similar to that described above for the PDS-producing cells.
His-tagged, purified proteins prepared as described above were transferred to the assay buffer on a PD10 column (Amersham Bioscience) and the concentration was adjusted to 100 μg/mL. Crude extracts containing phytoene were produced in E. coli JM101/pACCRT-EB containing geranylgeranyl pyrophosphate synthase and phytoene synthase enzymes from Erwinia uredova as described above. The reaction assays consisted of 50 μg PDS in 500 μl of assay buffer (200 mM Sodium Phosphate, pH 7.2) and 500 μl of pACCRT-EB extract. The herbicide (10 μL in MeOH) was added to the 500 μl of PDS extract and incubated on ice for 15 minutes prior to mixing it with the EB extract. […] Dose-response curves were fitted to the four-parameter logistic function. […] I^50 values were calculated from the regressions.

Chain of hydrilla PDS position 304 Arginine, His-tagged (Q66PY0 77-580): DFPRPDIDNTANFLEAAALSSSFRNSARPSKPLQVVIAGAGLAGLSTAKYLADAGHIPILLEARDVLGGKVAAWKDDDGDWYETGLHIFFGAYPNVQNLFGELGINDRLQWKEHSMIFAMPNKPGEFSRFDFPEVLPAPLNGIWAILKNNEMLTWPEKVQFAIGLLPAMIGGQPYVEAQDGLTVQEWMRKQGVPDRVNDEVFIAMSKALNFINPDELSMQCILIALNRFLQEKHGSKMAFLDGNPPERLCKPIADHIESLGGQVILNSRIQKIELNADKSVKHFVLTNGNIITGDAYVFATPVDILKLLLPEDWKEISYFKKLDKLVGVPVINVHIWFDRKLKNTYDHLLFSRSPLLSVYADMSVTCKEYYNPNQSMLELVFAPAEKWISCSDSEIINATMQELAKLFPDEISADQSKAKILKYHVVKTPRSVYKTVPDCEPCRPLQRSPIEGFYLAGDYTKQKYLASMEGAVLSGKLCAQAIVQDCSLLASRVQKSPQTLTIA

Compound	R/S	IC50	R/S (30 min)
CCC(Oc1ccc(F)c(C(F)(F)F)c1)C(=O)NCc1ccccc1 (centres unmarked) [Beflubutamid]	1	72 µM	–
O=C(Nc1ccc(F)cc1F)c1cccnc1Oc1cccc(C(F)(F)F)c1 [Diflufenican]	–	101 µM	1
O=C1C(Cl)C(CCl)CN1c1cccc(C(F)(F)F)c1 (centres unmarked) [Fluorochloridone]	–	130 µM	1
CNC1=C(c2cccc(C(F)(F)F)c2)C(=O)C(c2ccccc2)O1 (centres unmarked) [Flurtamone]	–	300 µM	1
CNc1cnn(-c2cccc(C(F)(F)F)c2)c(=O)c1Cl [Norflurazon]	–	50 µM	–
O=C(Nc1ccc(F)cc1)c1cccc(Oc2cccc(C(F)(F)F)c2)n1 [Piconilafen, Picolinafen]	–	327 µM	–
Fluridone	–	–	1
